{"source": "ChEMBL document CHEMBL1926669", "about": "“Quantitative structure-activity relationships of 1,3,4-thiadiazol-2(3H)-ones and 1,3,4-oxadiazol-2(3H)-ones as human protoporphyrinogen oxidase inhibitors” (Bioorg Med Chem, 2012)", "note": "pKi: −log10 of the molar value."}
{"target": "T1, Protoporphyrinogen oxidase (Homo sapiens, UniProt P50336)", "T1 sequence (P50336 whole entry)": "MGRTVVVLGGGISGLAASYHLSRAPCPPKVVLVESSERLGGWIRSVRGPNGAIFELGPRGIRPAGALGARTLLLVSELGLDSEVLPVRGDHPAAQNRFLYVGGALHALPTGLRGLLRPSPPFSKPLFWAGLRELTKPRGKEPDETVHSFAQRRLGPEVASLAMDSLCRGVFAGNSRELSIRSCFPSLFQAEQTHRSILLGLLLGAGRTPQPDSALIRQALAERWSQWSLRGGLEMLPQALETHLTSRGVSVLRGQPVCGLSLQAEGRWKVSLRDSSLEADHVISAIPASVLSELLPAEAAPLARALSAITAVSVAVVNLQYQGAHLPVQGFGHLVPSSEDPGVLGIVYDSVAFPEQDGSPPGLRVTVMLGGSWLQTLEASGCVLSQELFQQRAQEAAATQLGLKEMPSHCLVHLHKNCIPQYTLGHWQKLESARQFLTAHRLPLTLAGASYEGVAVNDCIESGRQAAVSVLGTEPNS", "test": "Inhibition of human PPO by capillary electrophoresis method"}
{"compound": "CCOC(=O)C(C)(C)Sc1nc2cc(-n3nc(C(C)(C)C)sc3=O)c(Cl)cc2s1", "pKi": 4.46}
{"compound": "CCOC(=O)CSc1nc2cc(-n3nc(C(C)(C)C)sc3=O)c(Br)cc2s1", "pKi": 4.81}
{"compound": "CCOC(=O)CSc1nc2cc(-n3nc(C(C)(C)C)oc3=O)c(Cl)cc2s1", "pKi": 5.97}
{"compound": "C#CCSc1nc2cc(-n3nc(C(C)(C)C)oc3=O)c(F)cc2s1", "pKi": 5.72}
{"compound": "CCOC(=O)Sc1nc2cc(-n3nc(C(C)(C)C)oc3=O)c(F)cc2s1", "pKi": 6.14}
{"compound": "CCOC(=O)C(C)(C)Sc1nc2cc(-n3nc(C(C)(C)C)oc3=O)c(Br)cc2s1", "pKi": 5.80}
{"compound": "CC(C)OC(=O)CSc1nc2cc(-n3nc(C(C)(C)C)sc3=O)c(F)cc2s1", "pKi": 5.90}
{"compound": "CCOC(=O)C(C)(C)Sc1nc2cc(-n3nc(C(C)(C)C)sc3=O)c(F)cc2s1", "pKi": 5.46}
{"compound": "CC(C)Oc1cc(-n2nc(C(C)(C)C)oc2=O)c(Cl)cc1Cl", "note": "[OXADIAZON]", "pKi": 5.53}
{"compound": "COC(=O)CSc1nc2cc(-n3nc(C(C)(C)C)sc3=O)c(F)cc2s1", "pKi": 5.52}
{"compound": "CCOC(=O)Sc1nc2cc(-n3nc(C(C)(C)C)sc3=O)c(Cl)cc2s1", "pKi": 6.70}
{"compound": "CCOC(=O)CCSc1nc2cc(-n3nc(C(C)(C)C)sc3=O)c(Br)cc2s1", "pKi": 4.56}
{"compound": "C#CCSc1nc2cc(-n3nc(C(C)(C)C)sc3=O)c(Cl)cc2s1", "pKi": 4.67}
{"compound": "CCOC(=O)C(C)Sc1nc2cc(-n3nc(C(C)(C)C)sc3=O)c(F)cc2s1", "note": "(stereo not given)", "pKi": 5.23}
{"compound": "CCOC(=O)C(C)Sc1nc2cc(-n3nc(C(C)(C)C)sc3=O)c(Br)cc2s1", "note": "(stereo not given)", "pKi": 3.76}
{"compound": "C#CCSc1nc2cc(-n3nc(C(C)(C)C)sc3=O)c(Br)cc2s1", "pKi": 4.68}
{"compound": "CCOC(=O)CCCSc1nc2cc(-n3nc(C(C)(C)C)sc3=O)c(Cl)cc2s1", "pKi": 4.75}
{"compound": "CCOC(=O)C(C)Sc1nc2cc(-n3nc(C(C)(C)C)sc3=O)c(Cl)cc2s1", "note": "(stereo not given)", "pKi": 4.92}
{"compound": "CCOC(=O)C(C)(C)Sc1nc2cc(-n3nc(C(C)(C)C)sc3=O)c(Br)cc2s1", "pKi": 4.36}
{"compound": "CCOC(=O)CCCSc1nc2cc(-n3nc(C(C)(C)C)sc3=O)c(Br)cc2s1", "pKi": 3.61}
{"compound": "CCOC(=O)Sc1nc2cc(-n3nc(C(C)(C)C)sc3=O)c(F)cc2s1", "pKi": 7.40}
{"compound": "CCOC(=O)CSc1nc2cc(-n3nc(C(C)(C)C)sc3=O)c(F)cc2s1", "pKi": 6.47}
{"compound": "CCOC(=O)CCCSc1nc2cc(-n3nc(C(C)(C)C)oc3=O)c(F)cc2s1", "pKi": 6.44}
{"target": "T2, Protoporphyrinogen oxidase, mitochondrial (Nicotiana tabacum, UniProt O24164)", "T2 sequence (O24164 whole entry)": "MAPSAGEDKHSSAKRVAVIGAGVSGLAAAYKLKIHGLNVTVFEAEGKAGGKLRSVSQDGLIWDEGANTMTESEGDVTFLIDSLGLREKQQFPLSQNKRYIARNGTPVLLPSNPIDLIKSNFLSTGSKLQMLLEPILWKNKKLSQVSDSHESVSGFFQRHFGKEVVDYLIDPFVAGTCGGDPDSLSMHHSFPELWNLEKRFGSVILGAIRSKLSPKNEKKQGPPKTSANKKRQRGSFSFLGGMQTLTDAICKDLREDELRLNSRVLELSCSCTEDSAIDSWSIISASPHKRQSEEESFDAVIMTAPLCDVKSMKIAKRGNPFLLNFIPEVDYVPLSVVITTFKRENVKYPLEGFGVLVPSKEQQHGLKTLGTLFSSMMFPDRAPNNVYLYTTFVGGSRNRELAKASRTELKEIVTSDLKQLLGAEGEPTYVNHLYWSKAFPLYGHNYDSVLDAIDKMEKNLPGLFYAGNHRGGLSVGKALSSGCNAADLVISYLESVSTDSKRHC", "test": "Inhibition of Nicotiana tobacum PPO"}
{"compound": "O=C(O)c1cc(Oc2ccc(C(F)(F)F)cc2Cl)ccc1[N+](=O)[O-]", "note": "[ACIFLUORFEN]", "pKi": 7.15}
{"target": "T1, Protoporphyrinogen oxidase", "test": "Inhibition of human PPO expressed in Escherichia coli BL21(DE3) by continuous fluorometric method"}
{"compound": "O=C(O)c1cc(Oc2ccc(C(F)(F)F)cc2Cl)ccc1[N+](=O)[O-]", "note": "[ACIFLUORFEN]", "pKi": 5.77}
